# In patent publication US20250332173A1, “COMPOUNDS AND METHODS FOR MODULATING NUCLEIC ACID SPLICING” (REMIX THERAPEUTICS INC., priority 2021, published 2025):
# Structures can show the parent of a compound that is named as a salt. Where two headings read alike, the source gives them in different places.
# Experiments:
# [1] = tested on: Target C; assay: RT-qPCR splicing assay panel, Target C canonical junction (CJ) mRNA; type: cell-based, human; settings: Homo sapiens; Table 5 panel; canonical junction qPCR; compound concentration having 50% response in CJ decrease; read-out: Target C IC50 (decrease in CJ mRNA levels)
# In short: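 Cells are plated (A673 allowed 24 h to adhere), dosed with an 11-point 3-fold series topping at 10 uM final, and incubated 24 h at 37 °C. Lysis is followed by cDNA synthesis and qPCR of the CJ transcript, normalized to a housekeeping gene.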
# [2] = tested on: MYB mRNA; assay: RT-qPCR splicing assay, MYB canonical junction (CJ) and alternative junction (AJ) mRNA; type: cell-based, human; settings: Homo sapiens; for AC50: increase in MYB alternative junction (AJ) mRNA, read-out: MYB AJ AC50
# In short: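 Splicing switches were read by TaqMan RT-qPCR on lysates, quantifying exon-exon junctions of the canonical and alternative-exon isoforms. Lysates came from K562 (GAPDH/GUSB reference) or A673 (PPIA reference) cells exposed 24 h to compound in 11 threefold steps from 10 uM, with DMSO ≤0.25%.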
# [3] = Table 5 panel, canonical junction qPCR, compound concentration having 50% response in CJ decrease, read-out: MYB IC50 (decrease in CJ mRNA levels)
# [4] = decrease in MYB canonical junction (CJ) mRNA, RT-qPCR, read-out: MYB CJ IC50
Compound,IC50 [1],"IC50 [2, 3]","IC50 [2, 4]",AC50 ([2]; RT-qPCR)
"Cc1cn2cc(-c3cc(F)c4c(=O)n([C@@H]5CNC[C@@H]5C)ccc4c3)cc(F)c2n1 [Compound 653, 8-fluoro-6-(8-fluoro-2-methyl-imidazo[1,2-a]pyridin-6-yl)-2-[(3S,4S)-4-methylpyrrolidin-3-yl]isoquinolin-1-one]",> 10 µM,1 to 10 µM,1 to 10 µM,1 to 10 µM
Cc1cn2nc(-c3cc(O)c4c(=O)n(C5CCN(C)CC5)ncc4c3)cc(C)c2n1 [Compound 543],0.1 to 1 µM,0.1 to 1 µM,0.1 to 1 µM,0.1 to 1 µM
"CNc1cc(-c2cc(C)c3nc(C)cn3n2)cc2ccn([C@@H]3CCNC3)c(=O)c12 [Compound 648, 6-(2,8-dimethylimidazo[1,2-b]pyridazin-6-yl)-8-(methylamino)-2-[(3R)-pyrrolidin-3-yl]isoquinolin-1-one]",> 10 µM,> 10 µM,> 10 µM,> 10 µM
CN1CCN(c2ccc3c(=O)n(-c4ccc5cn(C)nc5c4)cnc3c2)CC1 [Compound 178],> 10 µM,> 10 µM,> 10 µM,> 10 µM
"CC(=O)Nc1cc(-c2cc(C)c3nc(C)cn3n2)cc2ccn([C@@H]3CCNC3)c(=O)c12 [Compound 650, N-[6-(2,8-dimethylimidazo[1,2-b]pyridazin-6-yl)-1-oxo-2-[(3R)-pyrrolidin-3-yl]-8-isoquinolyl]acetamide]",> 10 µM,> 10 µM,> 10 µM,> 10 µM
Cc1nc2c(C)cc(-c3ccc4c(=O)n(C5CCNC6(CC6)C5)ncc4c3)cc2o1 (stereo not shown) [Compound 513],1 to 10 µM,1 to 10 µM,1 to 10 µM,1 to 10 µM
Cc1cn2nc(-c3cc(F)c4c(=O)n([C@@H]5CCN(C)C6(CC6)C5)ncc4c3)cc(C)c2n1 [Compound 637],< 0.1 µM,< 0.1 µM,< 0.1 µM,< 0.1 µM
"COC(=O)c1cc(-c2ccc3c(=O)n(C4CCNCC4)ccc3c2)nn2cc(C)nc12 [Compound 517, methyl 2-methyl-6-[1-oxo-2-(4-piperidyl)-6-isoquinolyl]imidazo[1,2-b]pyridazine-8-carboxylate]",1 to 10 µM,0.1 to 1 µM,0.1 to 1 µM,0.1 to 1 µM
"Cc1cn2nc(-c3ccc4c(=O)n(C5CCNCC5)ccc4c3)cc(CO)c2n1 [Compound 525, 6-[8-(hydroxymethyl)-2-methyl-imidazo[1,2-b]pyridazin-6-yl]-2-(4-piperidyl) isoquinolin-1-one]",0.1 to 1 µM,0.1 to 1 µM,< 0.1 µM,0.1 to 1 µM
"Cc1cn2nc(-c3ccc4c(=O)n(C5CCNCC5)ccc4c3)cc(Oc3cccc(F)c3)c2n1 [Compound 545, 6-[8-(3-fluorophenoxy)-2-methyl-imidazo[1,2-b]pyridazin-6-yl]-2-(4-piperidyl)isoquinolin-1-one; hydrochloride]",< 0.1 µM,< 0.1 µM,< 0.1 µM,< 0.1 µM
"Cc1cn2nc(-c3ccc4c(=O)n(C5CCNCC5)ncc4c3)cc(Oc3ccccc3)c2n1 [Compound 549, 6-(2-methyl-8-phenoxy-imidazo[1,2-b]pyridazin-6-yl)-2-(4-piperidyl) phthalazin-1-one]",0.1 to 1 µM,< 0.1 µM,0.1 to 1 µM,< 0.1 µM
"Cc1cn2nc(-c3cc(N)c4c(=O)n([C@H]5CCNC5)ccc4c3)cc(C)c2n1 [Compound 645, 8-amino-6-(2,8-dimethylimidazo[1,2-b]pyridazin-6-yl)-2-[(3S)-pyrrolidin-3-yl]isoquinolin-1-one]",> 10 µM,1 to 10 µM,1 to 10 µM,1 to 10 µM
"COc1cccc(Oc2cc(-c3ccc4c(=O)n(C5CCNCC5)ccc4c3)nn3cc(C)nc23)c1 [Compound 547, 6-[8-(3-methoxyphenoxy)-2-methyl-imidazo[1,2-b]pyridazin-6-yl]-2-(4 piperidyl) isoquinolin-1-one]",< 0.1 µM,< 0.1 µM,< 0.1 µM,< 0.1 µM
Cc1cn2cc(-c3cc(F)c4c(=O)n([C@H]5CNC[C@@H]5F)ccc4c3)cc(F)c2n1 [Compound 644],> 10 µM,0.1 to 1 µM,1 to 10 µM,0.1 to 1 µM
Cc1cn2nc(-c3ccc4c(=O)n(C5CCN(CCF)CC5)ncc4c3)cc(C)c2n1 [Compound 515],1 to 10 µM,1 to 10 µM,0.1 to 1 µM,1 to 10 µM
Cc1nc2c(C)cc(-c3cc(F)c4c(=O)n(C5CCNC6(CC6)C5)ncc4c3)cc2o1 (stereo not shown) [Compound 555],0.1 to 1 µM,0.1 to 1 µM,0.1 to 1 µM,0.1 to 1 µM
"Cc1cn2nc(-c3ccc4c(=O)n(C5CCNCC5)ccc4c3)cc(OCc3ccccc3)c2n1 [Compound 526, 6-(8-benzyloxy-2-methyl-imidazo[1,2-b]pyridazin-6-yl)-2-(4-piperidyl) isoquinolin-1-one]",1 to 10 µM,0.1 to 1 µM,0.1 to 1 µM,0.1 to 1 µM
"Cc1cn2nc(-c3ccc4c(=O)n(C5CCNCC5)ccc4c3)cc(Oc3ccccc3F)c2n1 [Compound 544, 6-[8-(2-fluorophenoxy)-2-methyl-imidazo[1,2-b]pyridazin-6-yl]-2-(4-piperidyl) isoquinolin-1-one; hydrochloride]",< 0.1 µM,0.1 to 1 µM,< 0.1 µM,0.1 to 1 µM
Cc1cc(-c2ccc3c(=O)n(C4CC(C)(C)NC(C)(C)C4)cnc3n2)cc2cn(C)nc12 [Compound 179],> 10 µM,> 10 µM,> 10 µM,> 10 µM
"CC(=O)Nc1cc(-c2cc(C)c3nc(C)cn3n2)cc2ccn([C@H]3CCNC3)c(=O)c12 [Compound 649, N-[6-(2,8-dimethylimidazo[1,2-b]pyridazin-6-yl)-1-oxo-2-[(3S)-pyrrolidin-3-yl]-8-isoquinolyl]acetamide]",> 10 µM,1 to 10 µM,1 to 10 µM,1 to 10 µM
"Cc1cn2nc(-c3ccc4c(=O)n(C5CCNCC5)ccc4c3)cc(C(=O)O)c2n1 [Compound 516, 2-methyl-6-[1-oxo-2-(4-piperidyl)-6-isoquinolyl]imidazo[1,2-b]pyridazine-8-carboxylic acid]",1 to 10 µM,1 to 10 µM,1 to 10 µM,1 to 10 µM
Cc1cn2cc(-c3cc(F)c4c(=O)n(C5CCNCC5)cnc4c3)cc(C#N)c2n1 [Compound 588],0.1 to 1 µM,0.1 to 1 µM,1 to 10 µM,0.1 to 1 µM
"Cc1cn2cc(-c3cc(F)c4c(=O)n([C@@H]5C[C@@H](C)N[C@@H](C)C5)ccc4c3)cc(F)c2n1 [Compound 642, 2-[(2S,6R)-2,6-dimethyl-4-piperidyl]-8-fluoro-6-(8-fluoro-2-methyl-imidazo[1,2-a]pyridin-6-yl)isoquinolin-1-one]",1 to 10 µM,0.1 to 1 µM,0.1 to 1 µM,0.1 to 1 µM
Cc1cn2nc(-c3ccc4c(=O)n(C5CCNCC5)cnc4c3)cc(C)c2n1 [Compound 181],0.1 to 1 µM,0.1 to 1 µM,0.1 to 1 µM,0.1 to 1 µM
"Cc1cn2nc(-c3ccc4c(=O)n(C5CCNCC5)ccc4c3)cc(CC#N)c2n1 [Compound 520, 2-[2-methyl-6-[1-oxo-2-(4-piperidyl)-6-isoquinolyl]imidazo[1,2-b]pyridazin-8-yl]acetonitrile]",1 to 10 µM,0.1 to 1 µM,0.1 to 1 µM,0.1 to 1 µM
